Calls of active or inactive are those of the source. The calls are words filed in the database; no cut-off is given here. Residues, ends and D or L forms follow the SMILES beside them. *: point of attachment. OBn = c1ccc(CO*)cc1
Columns and labels:
Calf thymus DNA [1] = test: Binding affinity to calf thymus DNA assessed as increase of DNA […] at compound-DNA ratio up to 0.36; assay type: nucleic-acid assay; settings: Bos taurus
Mus musculus [2] = test: Toxicity in mouse S180 cells allografted ICR mouse assessed as increase of body weight at 8.9 mg/kg, ip qd for 7 days relative to control; assay type: organism-based, CCRF S-180; parameters: dose 8.9 mg/kg, route intraperitoneal; settings: in vivo, 168 h
CCRF S-180 [3] = test: Antitumor activity against mouse S180 cells allografted in ip dosed ICR mouse assessed as tumor growth inhibition administered qd for 7 days relative to control; assay type: functional, organism-based
Mus musculus [4] = test: Neurotoxicity in ICR mouse assessed as neurotoxic behavior up to 500 mg/kg, ip after 7 days; assay type: toxicity, organism-based; parameters: dose 500 mg/kg, route intraperitoneal; settings: in vivo, 168 h
CCRF S-180 [5] = test: Antitumor activity against mouse S180 cells allografted in ICR mouse assessed as tumor growth inhibition at 0.89 mg/kg, ip qd for 7 days relative to control; assay type: functional; settings: CCRF S-180, ip, 168 h, route intraperitoneal, read-out: TGI
Mus musculus [6] = test: Toxicity in mouse S180 cells allografted ICR mouse assessed as kidney weight at 8.9 mg/kg, ip qd for 7 days relative to control; assay type: organism-based, CCRF S-180; parameters: dose 8.9 mg/kg, route intraperitoneal; settings: in vivo, 168 h
CCRF S-180 [7] = test: Antitumor activity against mouse S180 cells allografted in ICR mouse assessed as tumor growth inhibition at 0.089 mg/kg, ip qd for 7 days relative to control; assay type: functional; settings: CCRF S-180, ip, 168 h, route intraperitoneal, read-out: TGI
Mus musculus [8] = test: Toxicity in ICR mouse assessed as changes in organs up to 500 mg/kg, ip after 7 days by necropsy analysis; assay type: organism-based; parameters: dose 500 mg/kg, route intraperitoneal; settings: in vivo, 168 h
Calf thymus DNA [9] = test: Binding affinity to 70 uM of calf thymus DNA assessed as decrease in fluorescence intensity at 50 uM by fluorescence spectra analysis; assay type: nucleic-acid assay; parameters: scale not given: the % may be the effect or the level left; settings: Bos taurus
CCRF S-180 [10] = test: Antiproliferative activity against mouse S180 cells after 48 hrs by MTT assay; assay type: functional, cell-based; settings: CCRF S-180, 48 h
Mus musculus [11] = test: Toxicity in ICR mouse assessed as mortality up to 500 mg/kg, ip after 7 days; assay type: organism-based; parameters: dose 500 mg/kg, route intraperitoneal; settings: in vivo, 168 h
Mus musculus [12] = test: Toxicity in mouse S180 cells allografted ICR mouse assessed as liver weight at 8.9 mg/kg, ip qd for 7 days relative to control; assay type: organism-based, CCRF S-180; parameters: dose 8.9 mg/kg, route intraperitoneal; settings: in vivo, 168 h
H22 = test: Antiproliferative activity against mouse H22 cells after 48 hrs by MTT assay; assay type: functional, cell-based; settings: H22, 48 h
Mus musculus [13] = test: Toxicity in mouse S180 cells allografted ICR mouse assessed as brain weight at 8.9 mg/kg, ip qd for 7 days relative to control; assay type: organism-based, CCRF S-180; parameters: dose 8.9 mg/kg, route intraperitoneal; settings: in vivo, 168 h
Calf thymus DNA [14] = test: Binding affinity to calf thymus DNA assessed as melting temperature at 10 uM; assay type: nucleic-acid assay; settings: Bos taurus
[15] = Acute toxicity in ip dosed ICR mouse after 7 days; assay type: organism-based; settings: in vivo
K562 = test: Antiproliferative activity against human K562 cells after 48 hrs by MTT assay; assay type: functional, cell-based; settings: K562, 48 h
B16 = test: Antiproliferative activity against mouse B16 cells after 48 hrs by MTT assay; assay type: functional, cell-based; settings: B16, 48 h
Mus musculus [16] = test: Toxicity in mouse S180 cells allografted ICR mouse assessed as spleen index at 8.9 mg/kg, ip qd for 7 days relative to control; assay type: organism-based, CCRF S-180; parameters: dose 8.9 mg/kg, route intraperitoneal; settings: in vivo, 168 h
CCRF S-180 [17] = test: Antitumor activity against mouse S180 cells allografted in ICR mouse assessed as tumor growth inhibition at 8.9 mg/kg, ip qd for 7 days relative to control; assay type: functional; settings: CCRF S-180, ip, 168 h, route intraperitoneal, read-out: TGI
HepG2 = test: Antiproliferative activity against human HepG2 cells after 48 hrs by MTT assay; assay type: functional, cell-based; settings: HepG2, 48 h
Calf thymus DNA [18] = test: Binding affinity to 10 to 70 uM of calf thymus DNA assessed as decrease in fluorescence intensity at 50 uM by fluorescence spectra analysis; assay type: nucleic-acid assay; settings: Bos taurus

SMILES	Activity (Mus musculus [2])	Activity (Mus musculus [4])	Activity (Mus musculus [6])	Activity (Mus musculus [8])	IC50 (CCRF S-180 [10])	Activity (Mus musculus [11])	Activity (Mus musculus [12])	IC50 (H22)	Activity (Mus musculus [13])	LD50 at 168 h [15]	IC50 (K562)	IC50 (B16)	Activity (Mus musculus [16])	inhibition in vivo at 8.9 mg/kg (CCRF S-180 [17])	IC50 (HepG2)	other results
NC(=O)C[C@H](N)C(=O)N[C@@H](Cc1c[nH]c2ccccc12)C(=O)N[C@@H](Cc1c[nH]c2ccccc12)C(=O)OCc1ccccc1 (H-Asn-Trp-Trp-OBn)	Toxic	Non-toxic	Non-toxic	Non-toxic	13.5 µM	Non-toxic	Non-toxic	11 µM	Non-toxic	> 500 mg/kg	11 µM	13.8 µM	Non-toxic	85.1%	11.9 µM	Activity (Calf thymus DNA [1]): Active; TGI (CCRF S-180 [3]): Dose-dependent effect; inhibition in vivo at 0.89 mg/kg (CCRF S-180 [5]): 46.7%; inhibition in vivo at 0.089 mg/kg (CCRF S-180 [7]): 26.6%; Activity (Calf thymus DNA [9]): 35.3%; Tm (Calf thymus DNA [14]): 20.8 °C; Activity (Calf thymus DNA [18]): Active
Nc1ccn([C@@H]2O[C@H](CO)[C@@H](O)[C@@H]2O)c(=O)n1 [CYTARABINE]					40.3 µM			37.8 µM			43.6 µM	49.2 µM		31.9%	38.1 µM	inhibition in vivo at 0.89 mg/kg (CCRF S-180 [5]): 20.6%; inhibition in vivo at 0.089 mg/kg (CCRF S-180 [7]): 7.86%
N[C@@H](CCC(=O)O)C(=O)N[C@@H](Cc1c[nH]c2ccccc12)C(=O)N[C@@H](Cc1c[nH]c2ccccc12)C(=O)OCc1ccccc1 (H-Glu-Trp-Trp-OBn)	Toxic	Non-toxic	Non-toxic	Non-toxic	16.6 µM	Non-toxic	Non-toxic	14.7 µM	Non-toxic	> 500 mg/kg	14.3 µM	21.4 µM	Non-toxic	78.8%	22.3 µM	
N=C(N)NCCC[C@H](N)C(=O)N[C@@H](Cc1c[nH]c2ccccc12)C(=O)N[C@@H](Cc1c[nH]c2ccccc12)C(=O)OCc1ccccc1 (H-Arg-Trp-Trp-OBn)	Toxic	Non-toxic	Non-toxic	Non-toxic	29.4 µM	Non-toxic	Non-toxic	27.5 µM	Non-toxic	> 500 mg/kg	27.2 µM	37.4 µM	Non-toxic	45.1%	38.1 µM	
CC(C)[C@H](N)C(=O)N[C@@H](Cc1c[nH]c2ccccc12)C(=O)N[C@@H](Cc1c[nH]c2ccccc12)C(=O)OCc1ccccc1 (H-Val-Trp-Trp-OBn)	Toxic	Non-toxic	Non-toxic	Non-toxic	36.1 µM	Non-toxic	Non-toxic	36 µM	Non-toxic	> 500 mg/kg	40.4 µM	50.1 µM	Non-toxic	33.5%	37.4 µM	
CSCC[C@H](N)C(=O)N[C@@H](Cc1c[nH]c2ccccc12)C(=O)N[C@@H](Cc1c[nH]c2ccccc12)C(=O)OCc1ccccc1 (H-Met-Trp-Trp-OBn)	Toxic	Non-toxic	Non-toxic	Non-toxic	19.8 µM	Non-toxic	Non-toxic	17.5 µM	Non-toxic	> 500 mg/kg	17 µM	25.2 µM	Non-toxic	61.5%	24.3 µM	
CC[C@H](C)[C@H](N)C(=O)N[C@@H](Cc1c[nH]c2ccccc12)C(=O)N[C@@H](Cc1c[nH]c2ccccc12)C(=O)OCc1ccccc1 (H-Ile-Trp-Trp-OBn)	Toxic	Non-toxic	Non-toxic	Non-toxic	15.1 µM	Non-toxic	Non-toxic	16.1 µM	Non-toxic	> 500 mg/kg	16.2 µM	17.2 µM	Non-toxic	80.1%	15.1 µM	
N[C@@H](Cc1ccc(O)cc1)C(=O)N[C@@H](Cc1c[nH]c2ccccc12)C(=O)N[C@@H](Cc1c[nH]c2ccccc12)C(=O)OCc1ccccc1 (H-Tyr-Trp-Trp-OBn)	Toxic	Non-toxic	Non-toxic	Non-toxic	22.9 µM	Non-toxic	Non-toxic	23 µM	Non-toxic	> 500 mg/kg	21.3 µM	24.8 µM	Non-toxic	53.4%	23.6 µM	

From ChEMBL document CHEMBL3217570, “A class of novel AA-Trp-Trp-OBzl: synthesis, in vitro anti-proliferation, in vivo anti-tumor action, and intercalation mechanism” (Medchemcomm, 2011)
